# Results published in patent publication US20240261417A1, “SOS1 DEGRADING AGENT AND PREPARATION METHOD THEREFOR AND APPLICATION THEREOF” (SHANGHAI LEADINGTAC PHARMACEUTICAL CO. LTD., priority 2021, published 2024).
# Test system: KRAS G12V mutant human lung adenocarcinoma cells NCI-H441
# Test: 3D cell proliferation inhibition assay, NCI-H441
# Format: cell-based
# Conditions: Homo sapiens, NCI-H441, 168 h, 7 days, CTG
# Protocol: Inhibition of 3D cell proliferation by the compounds was investigated on KRAS G12C mutant human non-small cell lung cancer cells NCI-H358 (ATCC or Stem Cell Bank, Chinese Academy of Sciences), KRAS G12D mutant human metastatic pancreatic adenocarcinoma cells AsPC-1 (ATCC), KRAS G12V mutant human lung adenocarcinoma cells NCI-H441 (ATCC), and KRAS G13D mutant human colorectal adenocarcinoma epithelial cells DLD-1 (ATCC). The specific procedures were as follows:
# 200 nL of compound solution diluted in a gradient was added to corresponding microwells of a 384-well low-adsorption microwell plate (Corning, 3657) using an Echo sonic pipetting system (Labcyte, Echo 550), so that the final concentration of the test compound in the reaction system was in a range of 20000 nM-0.008 nM. Then 40 μL of cells at a certain density were added to the corresponding microplate. In addition to test wells for the test compounds, both a DMSO control well and a medium control well were set, with the DMSO control well containing DMSO and cells and the medium well containing only medium. After sample loading, the plate cover was applied, and the 384-well low-adsorption microplate was incubated in an incubator at 37° C. with 5% carbon dioxide for 7 days. After 7 days, the microplate was taken out, and 40 μL of CTG reagent (Promega, G9683) was added to each well. The plate was incubated at room temperature for 30 min and read on a microplate reader EnVision using the chemiluminescence program. The inhibition rates of the compounds at each concentration were calculated by the formula for the percentage inhibition of cell proliferation: inhibition rate %=(mean value of DMSO control group−single concentration reading value of compound)/(mean value of DMSO control group−mean value of medium control group)×100, and then nonlinear curve fitting was performed by GraphPad Prism 8 in the logarithmic concentration-inhibition rate to obtain the IC50 values of the compounds.
row,Structure (SMILES),IC50
1,"COc1cc2nc(C)nc(N[C@H](C)c3cc(N)cc(C(F)(F)F)c3)c2cc1[C@H]1CC[C@H](C(=O)N2CCC(CCOCC3CCN(C(=O)c4ccc(Cl)c(N5CCC(=O)NC5=O)c4)CC3)CC2)CC1 [Example 19, 1-(5-(4-((2-(1-((1R,4R)-4-(4-(((R)-1-(3-amino-5-(trifluoromethyl)phenyl)ethyl)amino)-7-methoxy-2-methylquinazolin-6-yl)cyclohexane-1-carbonyl)piperidin-4-yl)ethoxy)methyl)piperidine-1-carbonyl)-2-chlorophenyl)dihydropyrimidine-2,4(1H,3H)-dione]",50 to 100 nM
2,"COc1cc2nc(C)nc(N[C@H](C)c3cc(N)cc(C(F)(F)F)c3)c2cc1[C@H]1CC[C@H](C(=O)N2CCN(CC3CCC4(CC3)CCN(C(=O)c3ccc(Cl)c(N5CCC(=O)NC5=O)c3)CC4)CC2)CC1 [Example 2, 1-(5-(9-((4-((1R,4R)-4-(4-(((R)-1-(3-amino-5-(trifluoromethyl)phenyl)ethyl)amino)-7-methoxy-2-methylquinazolin-6-yl)cyclohexane-1-carbonyl)piperazin-1-yl)methyl)-3-azaspiro[5.5]undecane-3-carbonyl)-2-chlorophenyl)dihydropyrimidine-2,4(1H,3H)-dione]",100 to 1000 nM
3,"CNCc1ccccc1-c1csc([C@@H](C)Nc2nc(C)nc3cc(OC)c([C@H]4CC[C@H](C(=O)N5CCN(CC6CCC7(CC6)CCN(C(=O)c6ccc(OC)c(N8CCC(=O)NC8=O)c6)CC7)CC5)CC4)cc23)c1 [Example 73, 1-(2-methoxy-5-(9-((4-((1R,4R)-4-(7-methoxy-2-methyl-4-(((R)-1-(4-(2-((methylamino)methyl)phenyl)thien-2-yl)ethyl)amino)quinazolin-6-yl)cyclohexane-1-carbonyl)piperazin-1-yl)methyl)-3-azaspiro[5.5]undecane-3-carbonyl)phenyl)dihydropyrimidine-2,4(1H,3H)-dione]",100 to 1000 nM
4,"COc1cc2nc(C)nc(N[C@H](C)c3cccc4c3CCS4(=O)=O)c2cc1[C@H]1CC[C@H](C(=O)N2CCN(CC3CCC4(CC3)CCN(C(=O)c3ccc(Cl)c(N5CCC(=O)NC5=O)c3)CC4)CC2)CC1 [Example 10, 1-(2-chloro-5-(9-((4-((1R,4R)-4-(4-(((R)-1-(1,1-dioxo-2,3-dihydrobenzo[b]thiophen-4-yl)ethyl)amino)-7-methoxy-2-methylquinazolin-6-yl)cyclohexane-1-carbonyl)piperazin-1-yl)methyl)-3-azaspiro[5.5]undecane-3-carbonyl)phenyl)dihydropyrimidine-2,4(1H,3H)-dione]",≤ 15 nM
5,"COc1cc2nc(C)nc(N[C@H](C)c3cc(N)cc(C(F)(F)F)c3)c2cc1[C@H]1CC[C@H](C(=O)N2CCN(CCOCC3CCN(C(=O)c4ccc(Cl)c(N5CCC(=O)NC5=O)c4)CC3)CC2)CC1 [Example 33, 1-(5-(4-((2-(4-((1R,4R)-4-(4-(((R)-1-(3-amino-5-(trifluoromethyl)phenyl)ethyl)amino)-7-methoxy-2-methylquinazolin-6-yl)cyclohexane-1-carbonyl)piperazin-1-yl)ethoxy)methyl)piperidine-1-carbonyl)-2-chlorophenyl)dihydropyrimidine-2,4(1H,3H)-dione]",100 to 1000 nM
6,"COc1cc2nc(C)nc(N[C@H](C)c3cc(N)cc(C(F)(F)F)c3)c2cc1[C@H]1CC[C@H](C(=O)N2CCN(CCC3CCC4(CC3)CCN(C(=O)c3ccc(Cl)c(N5CCC(=O)NC5=O)c3)CC4)CC2)CC1 [Example 1, 1-(5-(9-(2-(4-((1R,4R)-4-(4-(((R)-1-(3-amino-5-(trifluoromethyl)phenyl)ethyl)amino)-7-methoxy-2-methylquinazolin-6-yl)cyclohexane-1-carbonyl)piperazin-1-yl)ethyl)-3-azaspiro[5.5]undecane-3-carbonyl)-2-chlorophenyl)dihydropyrimidine-2,4(1H,3H)-dione]",30 to 50 nM
